Results as given in patent publication US8604225B2, “Method of producing hydroxymethyl-furfural” (Novozymes, A/S, priority 2010, dated 2013).
Read-outs that look alike come from different tables or passages of the source.

Experiments:
[1] = HMF distribution between organic extraction solvent and aqueous phase; type: physicochemical; details: B(OH)3 and NaCl, organic:aqueous 4:1, 150° C.
Procedure: An aqueous solution containing 30 wt % fructose (3 mL, 5.7 mmol) was mounted in an Ace vial pressure tube (stable to ˜20 Bar) and solid B(OH)3 (0.3 g, 5 mmol) and NaCl (0.15 g, 3 mmol) were added to the solution. Different organic extraction solvent were added resulting in a organic:aqueous volume ratio of 4:1. The tube with the reaction mixture was placed in a preheated oil bath for a specified time under magnetic stirring (420 rpm) at a 150° C. (reaction times were measured after a stable oil bath temperature had been reached). After the reaction, the tube was removed from the oil bath and cooled to room temperature before a sample was taken for analysis. A sample of the reaction mixture was collected and filtered through a syringe filter (0.45 μm PTFE), mixed with an internal standard (i-PrOH) and analyzed via HPLC.
The R value indicated in table 10 is the HMF distribution obtained between the MIBK phase and the aqueous phase, i.e. [HMF]MIBK/[HMF]aq.

[2] = biological target: T1, immobilized glucose isomerase (Sweetzyme™) (Streptomyces murinus, UniProt P37031); assay: Glucose isomerase performance with substrate containing HMF; type: biochemical, S. murinus; set-up: purchased Novozymes A/S; details: for Activity: Syrup with 0.1 w/w % HMF
Procedure: To the substrate was added hydroxymethylfurfural (HMF) to a final concentration of 0.1 w/w % HMF.

[3] = biological target: T1, immobilized glucose isomerase (Sweetzyme™); assay: Effect of HMF on the initial activity of Sweetzyme™ (batch bottles); type: biochemical, S. murinus; set-up: purchased Novozymes A/S; details: for initial activity: 60° C.
Procedure: 2.5 gram immobilized glucose isomerase (Sweetzyme™) was loaded to a 250 mL square shaped bottles with screw cap. The bottles were placed in an orbital shaker and heated to 60° C.
The following conditions were applied for 4 bottles. The term conversion is defined as the fructose/glucose ratio.
Conversion vs. time is presented in FIG. 10 and the initial activity is calculated to be 389.
Conversion vs. time is presented in FIG. 11 and the initial activity is calculated to be 378.
Conversion vs. time is presented in FIG. 12 and the initial activity is calculated to be 364.

[4] = biological target: T1, immobilized glucose isomerase (Sweetzyme™); details: for glucose isomerase performance at high salt concentration: as shown in example 12; for stability of Sweetzyme™ in the presence of the salt: conclusion of example 12
Procedure: 3 gram immobilized glucose isomerase (Sweetzyme™) was loaded in a lab-scale column heated to 60° C. and a substrate flow of 50 gram/hour was applied. […] Samples were collected on a regular basis for HPLC analysis and the enzyme activity was calculated according to the following equation (Jorgensen, O. B., et al., Starch-Starke, 1988. 40(8), 307-313):
[formula] where: A: specific activity of immobilized enzyme (micromol/min/g enzyme) (IGIU/g: Immobilized Glucose Isomerase Units/g) 0.926: unit conversion factor Fw: Flow rate of syrup (g/h) w: Weight of enzyme (g) DP1: Inlet % of (glucose+fructose) in dry substance (100 at analytical conditions) DS: Dry substance content (%) X: Conversion=outlet % fructose/DP1 Xi: inlet % fructose/DP1 Xe: X at equilibrium (0.51 at 60° C.) DP1, Xi and Xe were assumed constant with following values: DP1: 99.7 Xi: 0 Xe: 0.5078

[5] = HMF distribution between MIBK phase and aqueous phase with different salts and boric acid; type: physicochemical; details: 30 wt % fructose, B(OH)3 0.3 g and salt 3 mmol (anion) in 3 mL, MIBK:aqueous 4:1, 150° C. 45 min
Procedure: An aqueous solution containing 30 wt % fructose (3 mL, 5.7 mmol) was mounted in an Ace vial pressure tube (stable to ˜20 Bar) and solid B(OH)3 (0.3 g, 5 mmol) and solid salt (3 mmol with respect to the anion) were added to the solution. MIBK was added as extraction solvent so that an organic:aqueous volume ratio of 4:1 was obtained. The tube with the reaction mixture was placed in a preheated oil bath for a specified time under magnetic stirring (420 rpm) at a 150° C. for 45 min (reaction times were measured after a stable oil bath temperature had been reached). After the reaction, the tube was removed from the oil bath and cooled to room temperature before a sample was taken for analysis. A sample of the reaction mixture was collected and filtered through a syringe filter (0.45 μm PTFE), mixed with an internal standard (i-PrOH) and analyzed via HPLC.
The R value indicated in table 9 is the HMF distribution obtained between the MIBK phase and the aqueous phase, i.e. [HMF]MIBK/[HMF]aq

[6] = 30 wt % fructose, time not given

T1 sequence (P37031 whole entry): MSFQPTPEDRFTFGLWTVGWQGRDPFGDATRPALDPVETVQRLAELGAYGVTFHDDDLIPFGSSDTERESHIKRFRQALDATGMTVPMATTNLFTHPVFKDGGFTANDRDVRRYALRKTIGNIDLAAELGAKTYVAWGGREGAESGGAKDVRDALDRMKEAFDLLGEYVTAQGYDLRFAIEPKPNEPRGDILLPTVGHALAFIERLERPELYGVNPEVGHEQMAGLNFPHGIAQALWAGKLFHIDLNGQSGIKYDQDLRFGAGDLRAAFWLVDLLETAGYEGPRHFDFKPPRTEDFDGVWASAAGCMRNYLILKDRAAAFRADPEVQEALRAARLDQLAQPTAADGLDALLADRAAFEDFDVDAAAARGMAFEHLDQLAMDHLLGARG

Work on `C1CCOC1` [THF, tetrahydrofuran] yielded a R-value [1, 6] of 3.2, a R-value ([1]; 60 min) of 3.7 and a R-value ([1]; 75 min) of 3.6.

Work on `CC(=O)CC(C)C` [MIBK, methyl-isobutylketone] yielded a R-value [1, 6] of 1.0.

For `O=Cc1ccc(CO)o1` [HMF, 5-(hydroxymethyl)-2-furaldehyde], the Activity ([2]; time 94.25 h) was 360.39 IGIU/g, the Activity ([2]; time 116.25 h) was 267.97 IGIU/g and the Activity ([2]; time 139.50 h) was 368.20 IGIU/g. It also gave an Activity ([2]; time 162.75 h) of 359.92 IGIU/g, an Activity ([2]; time 237.25 h) of 367.23 IGIU/g and an Activity ([2]; time 259.17 h) of 353.51 IGIU/g. For the same compound, the Activity ([2]; time 283.67 h) was 363.92 IGIU/g, the Activity ([2]; time 311.08 h) was 358.90 IGIU/g and the “decay rate compared to a column with normal syrup” value ([2]; after 9 days with substrate containing 0.1 w/w % HMF) was “not affected”. For the same compound, the initial activity ([3]; Bottle 2: 0.01 w/w % HMF in 45% glucose syrup) was 389, the initial activity ([3]; Bottle 3: 0.1 w/w % HMF in 45% glucose syrup) was 378 and the initial activity ([3]; Bottle 4: 1 w/w % HMF in 45% glucose syrup) was 364. For the same compound, the “Sweetzyme™ activity as a function of HMF concentration” value ([3]; FIG. 13, 0.01-1 w/w % HMF) was “not seriously affected”.

With `[Cl-].[K+]` [KCl, potassium chloride] the Activity ([4]; Column 4: 63.78 g/l KCl, time 18.17 h) was 398.12 IGIU/g, the Activity ([4]; Column 4: 63.78 g/l KCl, time 46.17 h) was 410.62 IGIU/g and the Activity ([4]; Column 4: 63.78 g/l KCl, time 66.67 h) was 411.97 IGIU/g. The Activity ([4]; Column 4: 63.78 g/l KCl, time 138.67 h) was 415.42 IGIU/g, the Activity ([4]; Column 4: 63.78 g/l KCl, time 163.50 h) was 429.63 IGIU/g and the Activity ([4]; Column 4: 63.78 g/l KCl, time 211.50 h) was 448.90 IGIU/g. It also gave an Activity ([4]; Column 4: 63.78 g/l KCl, time 233.83 h) of 469.08 IGIU/g, an Activity ([4]; Column 4: 63.78 g/l KCl, time 309.25 h) of 468.47 IGIU/g and an Activity ([4]; Column 4: 63.78 g/l KCl, time 331.42 h) of 469.21 IGIU/g. It also gave an Activity ([4]; Column 4: 63.78 g/l KCl, time 378.83 h) of 443.80 IGIU/g, an Activity ([4]; Column 4: 63.78 g/l KCl, time 474.42 h) of 430.17 IGIU/g and an Activity ([4]; Column 4: 63.78 g/l KCl, time 498.33 h) of 428.76 IGIU/g. The Activity ([4]; Column 4: 63.78 g/l KCl, time 522.25 h) was 418.17 IGIU/g, the Activity ([4]; Column 4: 63.78 g/l KCl, time 547.33 h) was 437.40 IGIU/g and the Activity ([4]; Column 4: 63.78 g/l KCl, time 569.17 h) was 438.97 IGIU/g. For the same compound, the Activity ([4]; Column 4: 63.78 g/l KCl, time 641.92 h) was 455.49 IGIU/g, the Activity ([4]; Column 4: 63.78 g/l KCl, time 669.67 h) was 426.01 IGIU/g and the “glucose isomerase performance at high salt concentration” value [4] was “comparable with a normal glucose substrate”. The “stability of Sweetzyme™ in the presence of the salt” value [4] was “good stability” and the “R value (MIBK:aq)” value [5] was 1.0.

For `[Cl-].[Na+]` [NaCl, sodium chloride], the Activity ([4]; 50 g/l NaCl, time 19.25 h) was 431.74 IGIU/g, the Activity ([4]; 50 g/l NaCl, time 47.25 h) was 438.80 IGIU/g and the Activity ([4]; 50 g/l NaCl, time 67.75 h) was 438.50 IGIU/g. It also gave an Activity ([4]; 50 g/l NaCl, time 139.75 h) of 425.49 IGIU/g, an Activity ([4]; 50 g/l NaCl, time 164.58 h) of 471.33 IGIU/g and an Activity ([4]; 50 g/l NaCl, time 188.58 h) of 469.46 IGIU/g. It also gave an Activity ([4]; 50 g/l NaCl, time 212.58 h) of 451.52 IGIU/g, an Activity ([4]; 50 g/l NaCl, time 234.92 h) of 468.84 IGIU/g and an Activity ([4]; 50 g/l NaCl, time 310.33 h) of 466.38 IGIU/g. It also gave an Activity ([4]; 50 g/l NaCl, time 332.50 h) of 468.14 IGIU/g, an Activity ([4]; 50 g/l NaCl, time 379.92 h) of 449.12 IGIU/g and an Activity ([4]; 50 g/l NaCl, time 475.50 h) of 446.72 IGIU/g. The Activity ([4]; 50 g/l NaCl, time 499.42 h) was 445.83 IGIU/g, the Activity ([4]; 50 g/l NaCl, time 523.33 h) was 439.69 IGIU/g and the Activity ([4]; 50 g/l NaCl, time 548.42 h) was 436.34 IGIU/g. The Activity ([4]; 50 g/l NaCl, time 570.25 h) was 436.11 IGIU/g, the Activity ([4]; 50 g/l NaCl, time 643.00 h) was 446.01 IGIU/g and the Activity ([4]; 50 g/l NaCl, time 670.75 h) was 435.86 IGIU/g. For the same compound, the “glucose isomerase performance at high salt concentration” value [4] was “further stabilised”, the “stability of Sweetzyme™ in the presence of the salt” value [4] was “good stability” and the “R value (MIBK:aq)” value [5] was 1.0.

For `CCC(C)O` (centres unmarked) [2-BuOH, 2-butanol], the R-value [1, 6] was 2.3.
